# Test results taken from ChEMBL document CHEMBL4354881, “Optimization of Potent ATAD2 and CECR2 Bromodomain Inhibitors with an Atypical Binding Mode” (J Med Chem, 2020).
# pIC50: −log10 of the molar value.
# Key:
# [1] = molecular target: Chromatin remodeling regulator CECR2 (Homo sapiens, UniProt Q9BXF3); experiment: Displacement of Alexa Fluor 647-labeled GSK tracer from FLAG-6His-Tev-fused CECR2 (424 to 543 residue) (unknown origin) measured after 15 mins by TR-FRET assay
# [2] = molecular target: T1, ATPase family AAA domain-containing protein 2 (Homo sapiens, UniProt Q6PL18); experiment: Displacement of Alexa Fluor 488-labeled ligand from FLAG-6His-Tev-fused ATAD2 (981 to 1121 residue) (unknown origin) measured after 30 mins by TR-FRET assay
# T1 sequence (Q6PL18 whole entry): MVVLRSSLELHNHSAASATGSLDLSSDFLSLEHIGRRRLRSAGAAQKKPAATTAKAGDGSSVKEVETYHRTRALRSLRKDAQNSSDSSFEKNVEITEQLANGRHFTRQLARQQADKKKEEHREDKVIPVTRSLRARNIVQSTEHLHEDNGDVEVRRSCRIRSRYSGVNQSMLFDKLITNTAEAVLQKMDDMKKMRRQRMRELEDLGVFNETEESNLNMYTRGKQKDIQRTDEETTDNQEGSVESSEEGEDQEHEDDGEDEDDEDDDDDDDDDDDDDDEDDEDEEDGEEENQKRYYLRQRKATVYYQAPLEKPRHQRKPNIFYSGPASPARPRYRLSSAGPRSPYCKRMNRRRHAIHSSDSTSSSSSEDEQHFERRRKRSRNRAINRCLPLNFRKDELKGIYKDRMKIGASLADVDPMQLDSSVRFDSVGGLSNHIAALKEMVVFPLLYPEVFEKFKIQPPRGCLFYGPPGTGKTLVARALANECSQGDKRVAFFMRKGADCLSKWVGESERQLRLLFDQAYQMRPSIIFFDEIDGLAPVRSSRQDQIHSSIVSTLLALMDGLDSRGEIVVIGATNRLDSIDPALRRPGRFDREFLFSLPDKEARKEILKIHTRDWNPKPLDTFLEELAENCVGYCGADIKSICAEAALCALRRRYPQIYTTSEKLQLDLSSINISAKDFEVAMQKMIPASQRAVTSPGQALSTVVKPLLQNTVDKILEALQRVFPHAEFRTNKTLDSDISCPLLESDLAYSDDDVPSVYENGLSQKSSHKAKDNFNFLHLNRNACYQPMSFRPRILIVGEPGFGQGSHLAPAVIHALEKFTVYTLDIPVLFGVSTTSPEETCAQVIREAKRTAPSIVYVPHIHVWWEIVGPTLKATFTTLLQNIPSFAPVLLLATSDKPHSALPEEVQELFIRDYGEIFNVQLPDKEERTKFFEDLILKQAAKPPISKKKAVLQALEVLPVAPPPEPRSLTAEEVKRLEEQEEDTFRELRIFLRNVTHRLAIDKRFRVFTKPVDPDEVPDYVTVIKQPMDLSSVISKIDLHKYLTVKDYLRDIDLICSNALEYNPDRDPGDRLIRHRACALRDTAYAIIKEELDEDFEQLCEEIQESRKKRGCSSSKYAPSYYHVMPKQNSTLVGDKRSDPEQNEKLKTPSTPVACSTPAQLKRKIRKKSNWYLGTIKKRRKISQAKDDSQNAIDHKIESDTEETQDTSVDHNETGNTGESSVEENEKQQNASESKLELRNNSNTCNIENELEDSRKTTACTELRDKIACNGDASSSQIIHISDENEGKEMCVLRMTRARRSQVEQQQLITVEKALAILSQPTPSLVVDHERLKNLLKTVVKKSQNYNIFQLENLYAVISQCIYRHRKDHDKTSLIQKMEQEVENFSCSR
# [3] = molecular target: Bromodomain-containing protein 4 (Homo sapiens, UniProt O60885, Y390A); experiment: Displacement of Alexa Fluor 647-labeled ligand from BRD4 BD1 Y390A mutant (1 to 477 residue) (unknown origin) measured after 30 mins by TR-FRET assay
# [4] = Permeability of the compound by artificial lipid membrane-based method; format: ADME; conditions: not told; read-out: permeability
# Chromatin remodeling regulator CECR2, sequence (Q9BXF3 whole entry, the tested form may be a part): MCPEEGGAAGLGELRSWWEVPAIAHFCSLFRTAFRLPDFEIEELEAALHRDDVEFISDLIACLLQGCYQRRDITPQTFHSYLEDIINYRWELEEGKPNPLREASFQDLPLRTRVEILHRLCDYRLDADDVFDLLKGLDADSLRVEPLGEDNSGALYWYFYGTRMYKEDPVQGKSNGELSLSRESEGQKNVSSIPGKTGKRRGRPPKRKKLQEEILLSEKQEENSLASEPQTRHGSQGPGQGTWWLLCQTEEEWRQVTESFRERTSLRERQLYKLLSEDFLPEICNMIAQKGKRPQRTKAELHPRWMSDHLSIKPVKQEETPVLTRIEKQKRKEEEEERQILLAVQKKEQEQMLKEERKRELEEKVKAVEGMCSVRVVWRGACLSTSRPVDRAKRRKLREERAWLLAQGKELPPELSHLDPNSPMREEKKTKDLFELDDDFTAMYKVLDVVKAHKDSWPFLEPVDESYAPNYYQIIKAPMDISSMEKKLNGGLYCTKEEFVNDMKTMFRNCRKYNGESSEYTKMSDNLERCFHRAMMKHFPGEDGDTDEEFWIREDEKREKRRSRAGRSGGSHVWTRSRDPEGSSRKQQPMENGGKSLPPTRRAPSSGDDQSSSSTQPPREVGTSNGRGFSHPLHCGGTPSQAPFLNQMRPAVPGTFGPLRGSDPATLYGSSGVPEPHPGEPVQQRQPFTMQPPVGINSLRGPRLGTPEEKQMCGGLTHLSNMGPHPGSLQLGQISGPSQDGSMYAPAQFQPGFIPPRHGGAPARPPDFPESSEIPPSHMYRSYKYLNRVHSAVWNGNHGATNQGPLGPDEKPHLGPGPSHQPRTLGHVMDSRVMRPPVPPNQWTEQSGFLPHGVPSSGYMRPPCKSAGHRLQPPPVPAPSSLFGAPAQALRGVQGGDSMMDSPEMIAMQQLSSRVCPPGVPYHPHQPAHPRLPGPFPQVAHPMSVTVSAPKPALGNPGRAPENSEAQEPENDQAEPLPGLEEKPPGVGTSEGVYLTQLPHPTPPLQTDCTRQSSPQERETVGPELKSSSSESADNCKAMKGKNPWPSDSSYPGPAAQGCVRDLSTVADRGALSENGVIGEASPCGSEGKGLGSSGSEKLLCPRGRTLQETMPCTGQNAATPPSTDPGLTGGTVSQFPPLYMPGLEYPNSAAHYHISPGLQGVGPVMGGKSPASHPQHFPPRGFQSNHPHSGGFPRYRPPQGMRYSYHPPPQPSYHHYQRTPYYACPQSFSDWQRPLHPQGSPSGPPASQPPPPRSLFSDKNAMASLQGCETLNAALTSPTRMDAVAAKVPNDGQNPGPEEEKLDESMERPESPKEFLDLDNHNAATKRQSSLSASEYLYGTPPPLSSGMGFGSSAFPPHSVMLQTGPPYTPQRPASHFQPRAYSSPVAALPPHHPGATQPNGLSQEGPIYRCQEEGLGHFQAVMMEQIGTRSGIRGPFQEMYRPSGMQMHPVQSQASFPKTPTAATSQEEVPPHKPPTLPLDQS
Compound,pIC50 [1],pIC50 [2],pIC50 [3],Papp [4]
C[C@H]1CCN(S(=O)(=O)c2cc(NC(=O)Cc3coc4ccccc34)ccc2Br)C1,5.10,5.60,< 4.30,–
COCc1cnnn1CC(=O)Nc1ccc(Br)c(S(=O)(=O)N2CC[C@H](C)C2)c1,6.60,6.00,4.30,–
CC1NC(=O)N(CC(=O)Nc2ccc(Cl)c(S(=O)(=O)N3CCCC3)c2)C1=O (racemic),5.20,5.90,< 4.30,1.2 ×10⁻⁶ cm/s
C[C@H]1CCN(S(=O)(=O)c2cc(NC(=O)Cc3noc4ccccc34)ccc2Br)C1,6.60,6.00,4.60,–
O=C(CN1C(=O)CNC1=O)Nc1ccc(Cl)c(S(=O)(=O)N2CCCCCC2)c1,4.90,5.90,< 4.30,–
CN(C)CC1CCN(S(=O)(=O)c2cc(NC(=O)CN3C(=O)CNC3=O)ccc2Cl)C1 (stereo not given),5.40,6.00,< 4.30,< 0.3 ×10⁻⁶ cm/s
C[C@@]1(C2CC2)NC(=O)N(CC(=O)Nc2ccc(Br)c(S(=O)(=O)N3CCCC3)c2)C1=O,6.40,6.60,< 4.30,–
O=C(CN1C(=O)CNC1=O)Nc1ccc(Cl)c(S(=O)(=O)N2CCC3(CC3)C2)c1,5.40,6.00,< 4.30,–
CCN1CCc2c(nnn2CC(=O)Nc2ccc(Br)c(S(=O)(=O)N3CC[C@H](C)C3)c2)C1,7.30,5.60,4.50,–
CN(C)S(=O)(=O)c1cc(NC(=O)CN2C(=O)CNC2=O)ccc1Cl,4.10,4.90,4.40,–
C[C@H]1CCN(S(=O)(=O)c2cc(NC(=O)Cn3nnc4c3CN(C)CC4)ccc2Br)C1,6.60,5.70,< 4.30,–
CCCc1cn(CC(=O)Nc2ccc(Br)c(S(=O)(=O)N3CC[C@H](C)C3)c2)nn1,5.80,5.80,4.40,–
O=C(CN1C(=O)COC1=O)Nc1ccc(Cl)c(S(=O)(=O)N2CCCC2)c1,5.80,5.90,< 4.30,5.4 ×10⁻⁶ cm/s
CN1CCc2c(nnn2CC(=O)Nc2ccc(Cl)c(S(=O)(=O)N3CC[C@@H](C4CC4)C3)c2)C1,6.90,5.20,4.40,–
C[C@H]1CCN(S(=O)(=O)c2cc(NC(=O)Cn3ccnn3)ccc2Br)C1,5.40,5.40,< 4.30,–
CCC1CCN(S(=O)(=O)c2cc(NC(=O)CN3C(=O)CNC3=O)ccc2Cl)C1 (racemic),5.90,6.20,< 4.30,–
C[C@H]1CCN(S(=O)(=O)c2cc(NC(=O)Cn3c(=O)[nH]c4ccccc43)ccc2Br)C1,6.30,5.90,< 4.30,–
C[C@@H]1CCN(S(=O)(=O)c2cc(NC(=O)CN3C(=O)CNC3=O)ccc2Cl)C1,5.30,6.00,< 4.30,–
COCC1CCN(S(=O)(=O)c2cc(NC(=O)CN3C(=O)CNC3=O)ccc2Cl)C1 (racemic),5.40,6.00,< 4.30,–
C[C@H]1CCN(S(=O)(=O)c2cc(NC(=O)Cn3nnc4c3CCN(C)C4)ccc2Br)C1,7.30,5.70,< 4.30,–
O=C(CN1C(=O)CNC1=O)Nc1ccc(Cl)c(S(=O)(=O)n2ccnc2)c1,< 4.00,< 4.00,< 4.30,–
C[C@H]1CCN(S(=O)(=O)c2cc(NC(=O)Cn3c(=O)oc4ccccc43)ccc2Br)C1,7.20,5.70,5.00,–
CN1CCc2c(nnn2CC(=O)Nc2ccc(Br)c(S(=O)(=O)N3CC[C@@H](C4CC4)C3)c2)C1,7.40,5.50,4.60,–

Compound,pIC50 [1],pIC50 [2],pIC50 [3],Papp [4]
CC1(C)CCN(S(=O)(=O)c2cc(NC(=O)CN3C(=O)CNC3=O)ccc2Cl)C1,4.60,5.50,< 4.30,–
C[C@@H]1CN(S(=O)(=O)c2cc(NC(=O)CN3C(=O)CNC3=O)ccc2Cl)C[C@H]1C (racemic),5.70,6.60,4.70,–
COCc1cn(CC(=O)Nc2ccc(Br)c(S(=O)(=O)N3CC[C@H](C)C3)c2)nn1,5.80,5.60,< 4.30,–
C[C@H]1CCN(S(=O)(=O)c2cc(NC(=O)Cn3cc(CN(C)C)nn3)ccc2Br)C1,6.60,5.90,< 4.30,–
CC1CCCN1S(=O)(=O)c1cc(NC(=O)CN2C(=O)CNC2=O)ccc1Cl (racemic),5.10,5.60,4.50,–
Cc1nnn(CC(=O)Nc2ccc(Br)c(S(=O)(=O)N3CC[C@H](C)C3)c2)c1C,6.00,5.20,< 4.30,–
C[C@H]1CCN(S(=O)(=O)c2cc(NC(=O)Cn3nnc4ccccc43)ccc2Br)C1,6.70,5.70,4.80,–
C[C@H]1CCN(S(=O)(=O)c2cc(NC(=O)CN3C(=O)N[C@](C)(C4CC4)C3=O)ccc2Br)C1,6.90,7.00,< 4.30,–
CCCc1cnnn1CC(=O)Nc1ccc(Br)c(S(=O)(=O)N2CC[C@H](C)C2)c1,7.10,5.50,5.00,–
CC1(C2CC2)NC(=O)N(CC(=O)Nc2ccc(Cl)c(S(=O)(=O)N3CCCC3)c2)C1=O (racemic),5.80,6.00,< 3.30,10 ×10⁻⁶ cm/s
C[C@H]1CCN(S(=O)(=O)c2cc(NC(=O)Cn3nnc4c3CCNC4)ccc2Br)C1,6.60,5.60,4.80,–
CC1(C)NC(=O)N(CC(=O)Nc2ccc(Cl)c(S(=O)(=O)N3CCCC3)c2)C1=O,5.30,5.80,< 4.30,1.8 ×10⁻⁶ cm/s
CC(C)N1CCc2c(nnn2CC(=O)Nc2ccc(Br)c(S(=O)(=O)N3CC[C@H](C)C3)c2)C1,7.50,5.70,4.30,–
C[C@H]1CCN(S(=O)(=O)c2cc(NC(=O)Cn3nncc3CN(C)C)ccc2Br)C1,7.10,5.40,< 4.30,–
O=C(CN1C(=O)CNC1=O)Nc1ccc(Cl)c(S(=O)(=O)C2CCCCC2)c1,< 4.00,< 4.00,< 4.30,–
O=C(CN1CCCC1=O)Nc1ccc(Cl)c(S(=O)(=O)N2CCCC2)c1,4.70,4.30,< 4.30,12 ×10⁻⁶ cm/s
CC(=O)N1CCc2c(nnn2CC(=O)Nc2ccc(Br)c(S(=O)(=O)N3CC[C@H](C)C3)c2)C1,7.00,5.80,< 4.30,–
CC(=O)Nc1ccc(Cl)c(S(=O)(=O)N2CCCC2)c1,4.10,4.50,3.70,27 ×10⁻⁶ cm/s
O=C(CN1C(=O)CNC1=O)Nc1ccc(Cl)c(S(=O)(=O)N2CCC(C3CC3)C2)c1 (racemic),6.30,6.30,< 4.30,–
C[C@H]1CCN(S(=O)(=O)c2cc(NC(=O)CN3C(=O)CNC3=O)ccc2Cl)C1,5.50,6.10,< 4.30,–
O=C(CN1C(=O)CNC1=O)Nc1ccc(Cl)c(S(=O)(=O)N2CCCCC2)c1,4.50,5.60,< 4.30,–
C[C@@H]1CN(S(=O)(=O)c2cc(NC(=O)CN3C(=O)CNC3=O)ccc2Cl)C[C@@H]1C,4.70,5.70,< 4.30,–
C[C@@H]1CN(S(=O)(=O)c2cc(NC(=O)CN3C(=O)NC(C)(C4CC4)C3=O)ccc2Br)C[C@H]1C (relative stereo),6.90,7.60,4.40,–
